This is an account of results in PubChem BioAssay AID366 (MTDP, 2006).

The source made the active and inactive calls. The rule behind the calls is not given here.

Ribonuclease H1 (Homo sapiens), sequence (O60930 whole entry, looked up): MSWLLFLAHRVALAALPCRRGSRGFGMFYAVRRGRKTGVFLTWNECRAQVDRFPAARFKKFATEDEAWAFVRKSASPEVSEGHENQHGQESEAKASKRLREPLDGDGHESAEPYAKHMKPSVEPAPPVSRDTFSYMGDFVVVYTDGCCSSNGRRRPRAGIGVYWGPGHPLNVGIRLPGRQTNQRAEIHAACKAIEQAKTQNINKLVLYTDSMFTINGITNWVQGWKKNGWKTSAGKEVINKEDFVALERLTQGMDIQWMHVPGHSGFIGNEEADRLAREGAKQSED

This experiment addresses Ribonuclease H1 (Homo sapiens) (UniProt O60930). In words: human RNase H1 inhibitors, dose response, biochemical, FRET RNA/DNA duplex cleavage (AID 366).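 Note: potency is for inhibitors that lower RNA cleavage and so lower fluorescence.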 The conditions noted are these: fluorescence.
On to `COC(=O)c1cc2cc3cc4cc(CC(=O)O)c(C(=O)/C=C(\O)c5ccccc5O)c(OC)c4c(OC)c3c(O)c2c(=O)o1`, for which the IC50 is 1200 nM. The result for `Oc1ccc(/C=N/Nc2nncc(-c3ccccc3)n2)c(O)c1O` reads 1100 nM; that for `O=C(O)c1c(Br)c(Br)c(Br)c(Br)c1C1c2ccc(O)cc2Oc2cc(O)ccc21`, 900 nM. The value for `Cc1cc(=O)c2c(O)c3c(O)cc(O)c4c5c(O)cc(O)c6c(O)c7c(=O)cc(C)c8c1c2c(c34)c(c65)c78` was 1100 nM. The result for `Cc1ccc(C2COc3cc(O)c(O)cc3C2)cc1` (stereo not drawn) reads 4800 nM; that for `CC1=C(CCC(=O)O)c2cc3nc(cc4[nH]c(cc5[nH]c(cc1n2)c(C)c5C(C)O)c(C)c4C(C)O)C(C)=C3CCC(=O)O` (stereo not drawn), 400 nM; that for `Cc1cccc(NC(=O)c2c(NC(=O)c3ccc([N+](=O)[O-])cc3)sc3c2CCCC3)c1`, 580 nM.

With `Cc1cc(C(=O)O)ccc1-n1c(C)ccc1C`, the IC50 entry is “inactive”. The value for `Cc1cc(O)c2c(c1O)C(=O)C13C(=C2O)C(=O)C2C(O)C1C1C(O)C3C(=O)C3=C(O)c4c(O)cc(C)c(O)c4C(=O)C321` (stereo not drawn) was 4000 nM; that for `CCCCCCCCCCCCCCCCCCOCC(O)CO` (stereo not drawn) was > 100000 nM (inactive); that for `O=C1C=CC(=O)C(c2cccc(Cl)c2)=C1` was 3900 nM. As to `Oc1ccc2ccccc2c1C=NCc1c(O)ccc2ccccc12`, the concentration for half-maximal inhibition (IC50) is 8000 nM. The value for `O=C1/C(=C/c2ccco2)C(=O)N(c2ccc(Br)cc2)C(=S)N1c1ccccc1` was 4400 nM; that for `CC(C)=CCC1=C(O)[C@@](O)(CC=C(C)C)C(=O)C(C(=O)CC(C)C)=C1O` was 2000 nM. The result for `COc1ccc(N2C(=O)/C(=C\c3cn(CC(=O)Nc4ccccc4)c4ccccc34)C(=O)NC2=S)cc1` reads 620 nM. The result for `S=C(Nc1ccc2c(c1)Cc1ccccc1-2)Nc1ccc2c(c1)Cc1ccccc1-2` reads 1300 nM. Consider `Oc1cc(O)c2cc(O)c(-c3ccc(O)c(O)c3)[o+]c2c1`, for which the IC50 was 100 nM.

As for `CC1Oc2cc3c(-c4c(O)cc(O)c5c(O)c6c(cc45)OC(C)C(C)C6=O)c(O)cc(O)c3c(O)c2C(=O)C1C` (stereo not drawn), the half-maximal inhibitory concentration (IC50) was 2700 nM. The value for `Nc1ccc(S(=O)(=O)O)c2cccc(O)c12` was 4500 nM. For the compound `COc1ccc2c(c1)N(C(=O)CN1C(=O)c3ccccc3C1=O)C(C)(C)c1ssc(=S)c1-2`, the IC50 result is “inactive”. The result for `Cc1ccc(S(=O)(=O)/N=C2\C=CC(=O)C=C2Cl)cc1` reads 3400 nM; that for `O=C(O)c1cc(-c2ccc(/C=C3/Sc4ccccc4C3=O)o2)ccc1O`, 400 nM. For the compound `Cc1ccc(C=C2C(=O)NC(=S)N(c3ccccc3Cl)C2=O)o1`, the IC50 result was “inactive”. The value for `C=CC(C)(C)C12CC3C(=O)N/C(=C\c4cnc[nH]4)C(=O)N3C1Nc1ccccc12` (stereo not drawn) was “inactive”; that for `CC(=O)C1=C(O)[C@@]2(O)C(=O)c3c(c(C)c4ccc(C)c(O)c4c3O)C[C@H]2[C@@H](N)C1=O` was 700 nM. Turning to `Cc1ccc(NC(=O)c2c(NC(=O)C(F)(F)F)sc(-c3ccccc3)c2C)c(C)c1`, the IC50 is 7500 nM. The value for `O=C(N/N=C/c1ccc(/C=N/NC(=O)c2ccc(O)c(O)c2)cc1)c1ccc(O)c(O)c1` was 40 nM; that for `CCOC(=O)Oc1c(OC)cc(C(=O)O[C@@H]2C[C@@H]3CN4CCc5c([nH]c6cc(OC)ccc56)[C@H]4C[C@@H]3[C@H](C(=O)OC)[C@H]2OC)cc1OC` was “inactive”; that for `CCOc1cccc(N2C(=O)/C(=C/c3cn(CC(=O)OC)c4ccccc34)C(=O)NC2=S)c1` was 920 nM. `CC(C)=CCC/C(C)=C/Cc1cc(/C=C/c2cc(O)c(C/C=C(\C)CCC=C(C)C)c(O)c2)cc(O)c1O`: the half-inhibitory concentration (IC50) is 1300 nM. The value for `CC(C)=CCC(O)C1=CC(=O)c2c(O)ccc(O)c2C1=O` (stereo not drawn) was 4200 nM; that for `COc1ccc(-c2nc3sc(-c4ccc(OC)cc4)nc3s2)cc1` was “inactive”. The result for `Cc1cc(I)c2c(c1)C1C=CCC1C(C(=O)O)N2` (stereo not drawn) reads “inactive”. With `CC(C)=CCC[C@]1(C)[C@@H](CC=C(C)C)C[C@@]2(CC=C(C)C)C(=O)/C(=C(\O)c3ccc(O)c(O)c3)C(=O)[C@]1(CC=C(C)C)C2=O`, the IC50 is 3200 nM. The result for `Cc1ccc(C)n1-c1ccc(O)c(C(=O)O)c1` reads 900 nM. Regarding `C=CCN1C(=O)/C(=C\c2ccc([N+](=O)[O-])o2)C(=O)NC1=S`, the IC50 result is “inactive”. The result for `NCC[Se][Se]CCN` reads 5300 nM; that for `O=S(=O)(Nc1cccc(C(F)(F)F)c1)c1ccc2ccccc2c1`, “inactive”; that for `Cc1ccc(-c2n[nH]c(=S)n2/N=C/c2ccc(O)c(O)c2O)cc1`, “inactive”. The result for `O=c1c(O)c(-c2cc(O)c(O)c(O)c2)oc2cc(O)cc(O)c12` reads 3000 nM; that for `NC(=O)c1c(N)sc2c1CCCCC2`, “inactive”.

Regarding `CCC(=O)Nc1sc2c(c1C(=O)Nc1ccc(OC)cc1)CCCCC2`, the IC50 is 9000 nM.

For `Cc1sc(NC(=O)Cc2ccccc2)c(C(N)=O)c1C`, the IC50 entry was “inactive”. As for `O=[N+]([O-])c1cc(Cc2cc([N+](=O)[O-])c3cccnc3c2O)c(O)c2ncccc12`, the IC50 is 500 nM. The result for `C[C@@H]1[C@H](O)c2c(c3c(c4c(-c5ccccc5)cc(=O)oc24)OC(C)(C)C=C3)O[C@@H]1C` reads 4800 nM; that for `CC1C2C=CC1C(c1c3ccc(=O)c(O)c-3oc3c(O)c(O)ccc13)C2C(=O)O` (stereo not drawn), 70 nM.

Regarding `CC1=NN(c2ccc(S(N)(=O)=O)cc2)C(=O)/C1=C/c1ccc(-c2ccc(Cl)cc2Cl)o1`, the IC50 was 750 nM. The value for `O=C1/C(=C/c2ccc(O)c(O)c2)SC(=S)N1C1CCCCC1` was 1800 nM; that for `CCOc1ccc(C(=O)Nc2ccc3c(c2)C(=O)c2ccccc2C3=O)cc1` was 1100 nM. Regarding `c1ccc(C(c2cccc3c2ccc2ccccc23)C(c2ccccc2)c2cccc3c2ccc2ccccc23)cc1` (stereo not drawn), the 50% inhibitory concentration (IC50) is 3600 nM. The result for `Cc1sc(NC(=O)c2ccc3c(c2)OCO3)c(C(N)=O)c1C` reads 3300 nM. The value for `O=C1NC(=S)N(c2ccccc2F)C(=O)/C1=C/c1ccc(I)o1` was 3000 nM. The value for `Nc1nc(Sc2ccc([N+](=O)[O-])c3nonc23)c2[nH]cnc2n1` was “inactive”; that for `CN(C)S(=O)(=O)c1ccc(Nc2ccc(O)c3c2C(=O)c2c([N+](=O)[O-])ccc(O)c2C3=O)cc1` was 800 nM. As to `CCOc1ccc(N2C(=O)/C(=C/c3ccc(Br)o3)C(=O)NC2=S)cc1`, the concentration for half-maximal inhibition (IC50) was 700 nM. Take `Cc1ccc(-n2c(/C=C/c3ccc(O)c(O)c3)nc3ccccc3c2=O)cc1`: the IC50 is 7300 nM. The value for `O=C1NC(=S)N(c2ccc(Cl)cc2)C(=O)/C1=C/c1ccco1` was “inactive”.

`O=c1c(O)c(-c2ccc(O)c(O)c2)oc2cc(O)cc(O)c12`: the IC50 is 3000 nM.

`CCOc1ccc(C2=CC(=O)C=CC2=O)cc1`: the IC50 was 5700 nM. The result for `Cc1ccc(C)n1-c1ccc(Br)cc1C(=O)O` reads 9000 nM; that for `Cc1sc2nc(-c3ccc([N+](=O)[O-])cc3)[nH]c(=O)c2c1C`, 900 nM; that for `CC(C)OC(=O)c1cc(O)c(O)c(O)c1`, > 100000 nM (inactive). The value for `Nc1ccc(N=Nc2ccc(-c3ccc(O)cc3)cc2)c2ccc(S(=O)(=O)O)cc12` was 4800 nM.
